According to patent US20240285552A1 (priority 2020, published 2024):
Counter-ions that a name gives are not always drawn. Like-named read-outs stand apart in the source and are kept apart here.

Tests used:
[1] = test system: SARS-CoV-2 spike (B.1.617.2 Delta Variant) pseudotyped lentivirus; experiment: microbe, parasite or virus in culture; type: cell-based; settings: for inhibition at 10 µM: HEK293, 10 μM
[2] = test system: B.1.617.2 Delta Variant of SARS-CoV-2; experiment: microbe, parasite or virus in culture; type: cell-based; settings: for IC50: read-out: IC 50 against B.1.617.2 Delta Variant Infection-Induced CPE
[3] = Lentivirus, read-out: Percent (%) Inhibition of Pseudo virus Entry in HEK293 Kidney Cells, B.1.617.2 Delta Variant
[4] = Severe acute respiratory syndrome coronavirus 2, Vero C1008, Vero E6

## Nc1c(Br)cc(Br)cc1CN[C@H]1CC[C@H](O)CC1 [AMB, 4-[(2-amino-3,5-dibromophenyl)methylamino]cyclohexan-1-ol; hydrochloride]
[1]; 50 μM, hydrochloride
  Percent (%) Inhibition of Pseudo virus Entry in HEK293 Kidney Cells, B.1.617.2 Delta Variant: 48%
[1]; 100 μM, hydrochloride
  Percent (%) Inhibition of Pseudo virus Entry in HEK293 Kidney Cells, B.1.617.2 Delta Variant: 95%
[1]; [3]
  inhibition at 10 µM: 6%
[1]; Lentivirus, HEK293, 25 μM, read-out: Percent (%) Inhibition of Pseudo virus Entry in HEK293 Kidney Cells, B.1.617.2 Delta Variant
  inhibition at 25 µM: 19%
[1]; Lentivirus, HEK293, 50 μM, read-out: Percent (%) Inhibition of Pseudo virus Entry in HEK293 Kidney Cells, B.1.617.2 Delta Variant
  inhibition at 50 µM: 50%
[1]; Lentivirus, HEK293, 100 μM, read-out: Percent (%) Inhibition of Pseudo virus Entry in HEK293 Kidney Cells, B.1.617.2 Delta Variant
  inhibition at 100 µM: 100%
[2]
  Conc. at Max. % Inhibition: 150 µM
  Max. Inhibition: 88.38%
[2]; [4]
  IC50: ~98 µM
[2]; Vero E6, hydrochloride
  IC50: 98.2 µM

## CCOC(=O)[C@H]1O[C@@H]1C(=O)N[C@@H](CC(C)C)C(=O)NCCC(C)C [Aloxistatin]
[2]
  Conc. at Max. % Inhibition: 15 µM
  Max. Inhibition: 85.17%
[2]; [4]
  IC50: 9.84 µM
[2]; Vero E6
  IC50: 9.82 µM

## CN(Cc1cc(Br)cc(Br)c1N)C1CCCCC1 [BHH, Bromhexine hydrochloride]
[1]; 100 μM
  Percent (%) Inhibition of Pseudo virus Entry in HEK293 Kidney Cells, B.1.617.2 Delta Variant: blocked viral entry completely
[1]; [3]
  inhibition at 10 µM: ~10%
[2]
  Conc. at Max. % Inhibition: 18.75 µM
  Max. Inhibition: 74.57%
[2]; [4]
  IC50: 17.7 µM

## CCN(CC)CCCC(C)Nc1ccnc2cc(Cl)ccc12 (stereo not drawn) [Chloroquine]
[2]
  Conc. at Max. % Inhibition: 15 µM
[2]; [4]
  IC50: 8.3 µM

## CC(C)(C)[C@H](NC(=O)C(F)(F)F)C(=O)N1C[C@H]2[C@@H]([C@H]1C(=O)N[C@H](C#N)C[C@@H]1CCNC1=O)C2(C)C [PF-07321332]
[2]
  Conc. at Max. % Inhibition: 10 µM
  Max. Inhibition: 96.28%
[2]; Vero E6
  IC50: 1.98 µM

## CCC(CC)COC(=O)[C@H](C)N[P@](=O)(OC[C@H]1O[C@@](C#N)(c2ccc3c(N)ncnn23)[C@H](O)[C@@H]1O)Oc1ccccc1 [Remdesivir]
[2]
  Conc. at Max. % Inhibition: 15 µM
  Max. Inhibition: 104.26%
[2]; [4]
  IC50: 8.24 µM
